How the values were obtained:
Type in all cases: toxicity, cell-based
HEK-293T = assay: Incucyte cell viability with HEK293T; details: human, 10 µM, compound concentration 10 uM
Fibroblast = assay: Incucyte cell viability with human fibroblast; details: 10 µM, compound concentration 10 uM
U2OS = assay: Incucyte cell viability with U2OS; details: human, 10 µM, compound concentration 10 uM
Also: unitless GR value; below 1 slowed growth and below 0 cell loss.

| SMILES | Growth Rate (HEK-293T; 6 h, replicate number 1) | Growth Rate (HEK-293T; 6 h, replicate number 2) | Growth Rate (HEK-293T; 12 h, replicate number 2) | Growth Rate (HEK-293T; 18 h, replicate number 2) | Growth Rate (HEK-293T; 24 h, replicate number 2) | Growth Rate (Fibroblast; 0 h, replicate number 2) | Growth Rate (Fibroblast; 6 h, replicate number 1) | Growth Rate (Fibroblast; 18 h, replicate number 1) | Growth Rate (U2OS; 0 h, replicate number 2) | Growth Rate (U2OS; 6 h, replicate number 1) | Growth Rate (U2OS; 18 h, replicate number 1) | Growth Rate (HEK-293T; 12 h, replicate number 1) | Growth Rate (HEK-293T; 18 h, replicate number 1) | Growth Rate (HEK-293T; 24 h, replicate number 1) | Growth Rate (Fibroblast; 18 h, replicate number 2) | Growth Rate (Fibroblast; 24 h, replicate number 2) | Growth Rate (U2OS; 24 h, replicate number 1) | Growth Rate (Fibroblast; 6 h, replicate number 2) | Growth Rate (Fibroblast; 12 h, replicate number 2) | Growth Rate (U2OS; 0 h, replicate number 1) | other results |
| --- | --- | --- | --- | --- | --- | --- | --- | --- | --- | --- | --- | --- | --- | --- | --- | --- | --- | --- | --- | --- | --- |
| CCC(=N\O)/C(C)=C/c1ccc(F)cc1 [A-079] | 0.09 | -0.79 | -0.09 | 0.33 | 0.57 | -0.47 | 0.02 | 0.86 | -0.97 | 0.53 | 1 | – | – | – | – | – | – | – | – | – | Growth Rate (U2OS; 6 h, replicate number 2): 0.16; Growth Rate (U2OS; 12 h, replicate number 2): 0.89; Growth Rate (U2OS; 18 h, replicate number 2): 0.78; Growth Rate (U2OS; 24 h, replicate number 2): 0.79 |
| Cn1c2ccccc2c2c3c(c4c5ccccc5n(CCC#N)c4c21)CNC3=O [GO-6976] | 0.62 | 0.05 | -0.2 | -0.19 | -0.14 | – | -0.79 | – | -0.94 | – | 0.29 | 0.69 | 0.36 | 0.7 | 0.88 | 0.48 | 0.17 | – | – | – | Growth Rate (HEK-293T; 0 h, replicate number 1): -0.49; Growth Rate (HEK-293T; 0 h, replicate number 2): -0.13; Growth Rate (Fibroblast; 12 h, replicate number 1): -1; Growth Rate (U2OS; 18 h, replicate number 2): 0.63; Growth Rate (U2OS; 24 h, replicate number 2): 0.39 |
| Cc1c(CCC(=O)O)cccc1NC(=O)[C@@H](c1ccc(-c2cncc(Cl)c2)c(F)c1)C1CCCC1 | – | 0.98 | – | – | – | – | – | – | – | 0.95 | – | – | – | – | 0.9 | 0.87 | – | -0.66 | 0.3 | 0.68 | Growth Rate (HEK-293T; 0 h, replicate number 1): -0.19; Growth Rate (HEK-293T; 0 h, replicate number 2): -0.54; Growth Rate (U2OS; 12 h, replicate number 1): 0.73 |
| CCCCCCCC/C=C\CCCCCCCC(=O)NCc1ccc(O)c(OC)c1 [OLVANIL] | -0.94 | – | – | – | – | -0.71 | – | – | – | 0.77 | 0.88 | -0.75 | -0.47 | -0.25 | 0.53 | 0.68 | 0.87 | – | 0.83 | – | Growth Rate (HEK-293T; 0 h, replicate number 2): 0.7; Growth Rate (Fibroblast; 0 h, replicate number 1): 0.97; Growth Rate (Fibroblast; 24 h, replicate number 1): 0.91; Growth Rate (U2OS; 6 h, replicate number 2): 0.84; Growth Rate (U2OS; 12 h, replicate number 2): 0.94 |
| CCC(C)(C)NC(=NC#N)Nc1cccnc1 | 0.19 | 0.56 | 0.56 | 0.78 | 0.95 | – | -1 | – | -0.68 | – | 1 | 0.42 | 0.64 | 0.85 | – | – | – | – | – | – | Growth Rate (U2OS; 12 h, replicate number 2): 0.85 |
| O=S(=O)(Nc1ccc(C(O)(C(F)(F)F)C(F)(F)F)cc1)c1cccs1 | 0.89 | – | 0.89 | – | 0.9 | 0.56 | – | 0.89 | 0.65 | 0.58 | 0.7 | – | 0.88 | 0.87 | 0.93 | 0.87 | 0.8 | 0.87 | – | -0.75 | Growth Rate (Fibroblast; 12 h, replicate number 1): 0.76; Growth Rate (U2OS; 12 h, replicate number 1): 0.46 |
| COc1cc2nc(C)nc(N[C@H](C)c3cc(N)cc(C(F)(F)F)c3)c2cc1O[C@H]1CCOC1 | 0.91 | – | – | – | – | – | 0.72 | – | – | 0.51 | 0.93 | 0.88 | – | – | 0.65 | 0.88 | 0.83 | -0.84 | 0.03 | 0.75 | Growth Rate (Fibroblast; 0 h, replicate number 1): -1; Growth Rate (U2OS; 6 h, replicate number 2): 0.96 |
| COc1cc(Cl)c(C(=O)N[C@@H](CN[C@H]2CC[C@@H](N)CC2)Cc2ccc(C#N)cc2)cc1-c1ccc(CN[C@H](C)c2ccc(C)cc2)o1 | -0.6 | -0.61 | -0.53 | – | -0.4 | – | -0.93 | -0.76 | -0.99 | -0.95 | -0.77 | -0.61 | -0.48 | -0.42 | -0.74 | -0.68 | -0.74 | -0.83 | -0.82 | -1 | Growth Rate (HEK-293T; 0 h, replicate number 2): -1; Growth Rate (Fibroblast; 12 h, replicate number 1): -0.8; Growth Rate (Fibroblast; 24 h, replicate number 1): -0.72; Growth Rate (U2OS; 6 h, replicate number 2): -0.91; Growth Rate (U2OS; 12 h, replicate number 1): -0.87; Growth Rate (U2OS; 12 h, replicate number 2): -0.86; Growth Rate (U2OS; 18 h, replicate number 2): -0.78; Growth Rate (U2OS; 24 h, replicate number 2): -0.76 |
| CC(C)Oc1ccc(Cc2ccc(NC3=NCCN3)cc2)cc1 | -0.15 | -0.39 | 0.14 | 0.42 | 0.45 | -0.09 | -0.34 | 0.24 | – | 0.1 | 0.59 | 0.09 | 0.26 | 0.37 | – | – | 0.58 | 0 | 0.88 | 0.6 | Growth Rate (Fibroblast; 0 h, replicate number 1): -1; Growth Rate (Fibroblast; 12 h, replicate number 1): -0.06; Growth Rate (Fibroblast; 24 h, replicate number 1): 0.26; Growth Rate (U2OS; 12 h, replicate number 1): 0.64 |

Source: ChEMBL document CHEMBL5303304, “EUbOPEN Chemogenomics Library - IncuCyte” (2023)
